Laboratory results reported in patent US20090280982A1, “Quinolinylmethyl Compounds” (BASF SE, priority 2006, published 2009).

Experiments:
[1] = test system: Green Peach Aphid (Myzus persicae); details: in vivo
Text: II.2 Activity Against Green Peach Aphid (Myzus persicae)
The active compounds were formulated in 50:50 acetone:water and 100 ppm Kinetic™ surfactant.
Pepper plants in the 2nd leaf-pair stage (variety California Wonder) were infested with approximately 40 laboratory-reared aphids by placing infested leaf sections on top of the test plants. The leaf sections were removed after 24 hr. The leaves of the intact plants were dipped into gradient solutions of the test compound and allowed to dry. Test plants were maintained under fluorescent light (24 hour photoperiod) at about 25° C. and 20-40% relative humidity. Aphid mortality on the treated plants, relative to mortality on check plants, was determined after 5 days.

[2] = test system: Brown Planthopper (nilaparvata lugens); test: Activity against brown planthopper (II.7); assay type: in vivo; details: for mortality [%] at 300 ppm: brown plant hopper (II.7)
Procedure: II.7 Activity Against Brown Planthopper (nilaparvata lugens)
The active compounds were formulated as a 20:80 acetone:water solution. Surfactant (Alkamuls EL 620) was added at the rate of 0.1% (vol/vol).
Potted rice plants of 3-4 weeks of age are sprayed with 10 ml of the test solution using air driven hand atomizer (Devillbis atomizer) at 1.7 bar. The treated plants are allowed to dry for about 1 hour and covered with Mylar cages. The plants are inoculated with 10 adults of the specie (5 male and 5 females) and kept at 25-27° C. and 50-60% humidity for 3 days. Mortality is assed after 24, 48 and 72 hours after treatment. Dead insects are usually found in the water surface. Each treatment is replicated once.

[3] = test system: Diamond Back Moth (plutella xylostella); details: in vivo
Procedure: II.5 Activity Against Diamond Back Moth (plutella xylostella)
The active compounds were formulated in 50:50 acetone:water and 0.1% (vol/vol) Alkamuls EL 620 surfactant. A 6 cm leaf disk of cabbage leaves was dipped in the test solution for 3 seconds and allowed to air dry in a Petri plate lined with moist filter paper. The leaf disk was inoculated with 10 third instar larvae and kept at 25-27° C. and 50-60% humidity for 3 days. Mortality was assessed after 72 h of treatment.

[4] = test system: Rice Green Leaf Hoppers (Nephotettix virescens); test: Activity against rice green leaf hoppers (II.20); assay type: in vivo; details: at 300 ppm; after 72 hours; rice foliar spray
Procedure: II.20 Activity Against Rice Green Leaf Hoppers (Nephotettix virescens)
(§1) Leaf hopper adults used for bioassay are obtained from a colony maintained continuously under laboratory conditions. For testing purposes, the test compound is diluted in 300 ppm (wt compound:vol diluent) in a 1:1 mixture of acetone:water, plus 0.1% EL 620 surfactant.
Hopper activity is evaluated using the foliar spray technique. Potted rice plants (2-3 week old, Variety TN-1) are cleaned and dried prior to application. All plants are treated inside the fume hood using DeVilbiss atomizer at 25 psi with a spray volume of 5 ml/plant. To ensure uniform spray distribution, plants were placed in a rotating flat form inside the fume hood. Treated plants are then placed inside the holding room and allowed to dry for 2 hours. Each plant are caged using Mylar cages (4 inches diameter×19 inches in height) and inoculated with 10 adults hoppers. All test plants are held under continuous light and a temperature of about 28° C. for duration of the assay. Percent mortality is observed after 72 hours.

[5] = test system: Flea Beetle (Phylotretta striolata); test: Activity against flea beetle (II.19); assay type: in vivo; details: at 300 ppm; after 3 days; leaf disc dip
Procedure: II.19 Activity Against Flea Beetle (Phylotretta striolata)
as §1, with “Flea bettle (Phylotretta striolata) adults” for “Leaf hopper adults”, “diluted to a concentration of” for “diluted in”, “(wt compound: vol” for “(wt compound:vol”
Activity of each compound is evaluated using a […]. Glass petri dishes (60×15 mm) lined with moist filter paper serves as test arenas. All leaf discs are dipped into treatment solution for approximately 3 seconds and allowed to dry for 2 hours. Each treated leaf disc is placed into individual petri dishes and inoculated with 10 adult beetles. Petri dishes are then covered with lids. All test arenas are held under continuous light and a temperature of about 28° C. for duration of the assay. After 3 days, percent mortality is observed.

Structure (SMILES)	mortality [%] at 100 ppm [1] [%]	mortality [%] at 300 ppm [1] [%]	mortality in comparison with untreated controls ([2]; at 300 ppm, rice plants sprayed, up to 72 hours)	mortality [%] at 300 ppm [2] [%]	mortality [%] at 10 ppm [1] [%]	mortality [%] at 300 ppm [3] [%]	mortality in comparison with untreated controls [4]	mortality in comparison with untreated controls [5]
O=S(=O)(NCc1ccnc2ccccc12)c1ccc(-c2ccc(OC(F)(F)F)cc2)c(F)c1 [Compound B14]	90	90	–	–	–	–	–	–
O=S(=O)(NCc1ccnc2ccccc12)c1ccc(-c2ccc(C(F)(F)F)cc2)c(C(F)(F)F)c1 [Compound B16]	–	–	at least 75%	100	–	–	–	–
O=S(=O)(NCc1ccnc2ccccc12)c1ccc(-c2ccc(C(F)(F)F)cc2)c(Cl)c1 [Compound B24]	90	100	–	–	90	100	–	–
O=S(=O)(NCc1ccnc2ccccc12)c1ccc(-c2ccc(C(F)(F)F)cc2Cl)cc1F [Compound B85]	–	–	–	–	–	–	at least 75%	at least 75%
O=S(=O)(NCc1ccnc2ccccc12)c1ccc(-c2ccc(OC(F)(F)F)cc2)cc1 [Compound C1, reference compound]	0	60	–	–	–	–	–	–
O=S(=O)(NCc1ccnc2ccccc12)c1ccc(-c2ccc(C(F)(F)F)cc2)cc1 [Compound C2, reference compound]	60	100	–	0	0	0	–	–
